# In patent publication US20100204203A1, “Chemical Compounds 637: Pyridopyrimidinediones as PDE4 Inhibitors” (priority 2007, published 2010):
# Where a name gives a salt, the structure may show the parent alone.
# Biological target: recombinant Human Phosphodiesterase B2 (PDE4B2) (Homo sapiens, UniProt Q07343)
# Experiment: Human Phosphodiesterase B2 Radiometric Assay (yttrium silicate SPA beads, [3H]cyclic AMP)
# Assay type: biochemical
# Conditions: recombinant human PDE4B2, radiometric SPA assay, 8 nM [3H]cyclic AMP; read-out: PDE4B2 pIC50 (converted)
# Procedure, shortened: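 Read-out is scintillation proximity: yttrium silicate beads (with 18 mM ZnSO4, added to stop the reaction) bind 5′AMP formed from 8 nM [3H]cAMP over 20 min. Beforehand, compound and 0.1 mg/mL enzyme were preincubated 30 min at 30 °C in pH 7.5 HEPES buffer with MgCl2, EGTA and Brij 35; pIC50 values were curve-fitted.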
# Sequence of recombinant Human Phosphodiesterase B2 (PDE4B2) (Q07343 1-564 isoform Q07343-2): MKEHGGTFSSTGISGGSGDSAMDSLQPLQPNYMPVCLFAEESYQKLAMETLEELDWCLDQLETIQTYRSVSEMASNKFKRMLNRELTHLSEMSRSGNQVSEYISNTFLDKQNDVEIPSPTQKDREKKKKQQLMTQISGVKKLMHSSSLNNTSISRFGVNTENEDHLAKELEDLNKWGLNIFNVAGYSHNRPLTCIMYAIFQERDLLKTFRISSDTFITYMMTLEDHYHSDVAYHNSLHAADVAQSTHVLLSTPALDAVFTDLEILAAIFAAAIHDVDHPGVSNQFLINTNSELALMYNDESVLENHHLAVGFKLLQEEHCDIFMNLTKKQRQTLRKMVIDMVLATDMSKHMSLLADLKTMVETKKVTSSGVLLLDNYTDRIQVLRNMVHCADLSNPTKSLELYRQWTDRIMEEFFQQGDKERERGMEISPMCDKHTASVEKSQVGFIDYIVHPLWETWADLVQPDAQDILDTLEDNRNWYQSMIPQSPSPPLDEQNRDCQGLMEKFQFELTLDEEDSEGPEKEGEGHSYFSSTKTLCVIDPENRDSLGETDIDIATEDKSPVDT
row,IC50 [pM],SMILES
1,6310,"O=C(N[C@H]1CC[C@@H](n2c(=O)c3cc(F)cnc3n(-c3ccc4c(cnn4Cc4ccccc4)c3)c2=O)CC1)c1cn2ccccc2n1 [Example 35, N-{cis-4-[1-(1-benzyl-1H-indazol-5-yl)-6-fluoro-2,4-dioxo-1,4-dihydropyrido[2,3-d]pyrimidin-3(2H)-yl]cyclohexyl}imidazo[1,2-a]pyridine-2-carboxamide]"
2,7.94,"CN(C)CCN(C)Cc1ccc(-c2cccc(-n3c(=O)n([C@H]4CC[C@@H](NC(=O)C5(N(C)C)CC5)CC4)c(=O)c4cc(F)cnc43)c2)cc1 [Example 110, 1-(dimethylamino)-N-{cis-4-[1-(4′-{[[2-(dimethylamino)ethyl](methyl)amino]methyl}biphenyl-3-yl)-6-fluoro-2,4-dioxo-1,4-dihydropyrido[2,3-d]pyrimidin-3(2H)-yl]cyclohexyl}cyclopropanecarboxamide]"
3,15.8,C[C@@H]1CN(Cc2cc(O)ccc2-c2cccc(-n3c(=O)n([C@H]4CC[C@@H](NCc5cn6cc(F)ccc6n5)CC4)c(=O)c4cc(F)cnc43)c2)C[C@H](C)O1 [Example 256]
4,39.8,"CC(C)N1CCN(Cc2ccc(-c3cccc(-n4c(=O)n([C@H]5CC[C@@H](NC(=O)C6(N(C)C)CC6)CC5)c(=O)c5cc(F)cnc54)c3)cc2)CC1 [Example 129, 1-(dimethylamino)-N-{cis-4-[6-fluoro-1-{4′-[(4-isopropylpiperazin-1-yl)methyl]biphenyl-3-yl}-2,4-dioxo-1,4-dihydropyrido[2,3-d]pyrimidin-3(2H)-yl]cyclohexyl}cyclopropanecarboxamide]"
5,1000,"CC(=O)n1cc(CN[C@H]2CC[C@@H](n3c(=O)c4cc(F)cnc4n(-c4cccc(-c5ccc(CN6CCCOCC6)cc5)c4)c3=O)CC2)c2ccccc21 [Example 266, 3-(cis-4-{[(1-acetyl-1H-indol-3-yl)methyl]amino}cyclohexyl)-6-fluoro-1-[4′-(1,4-oxazepan-4-ylmethyl)biphenyl-3-yl] pyrido[2,3-d]pyrimidine-2,4(1H,3H)-dione]"
6,100,"CC(C)N1CCN(Cc2ccc(-c3cccc(-n4c(=O)n([C@H]5CC[C@@H](NC(=O)CC6CCOCC6)CC5)c(=O)c5cc(F)cnc54)c3)cc2)CC1 [Example 234, N-{cis-4-[6-fluoro-1-{4′-[(4-isopropylpiperazin-1-yl)methyl]biphenyl-3-yl}-2,4-dioxo-1,4-di-hydropyrido[2,3-d]pyrimidin-3(2H)-yl]cyclohexyl}-2-(tetrahydro-2H-pyran-4-yl)acetamide]"
7,794,"CC(C)N1CCN(Cc2ccc(-c3cccc(-n4c(=O)n([C@H]5CC[C@@H](NCc6c(C(F)(F)F)nn(C)c6Cl)CC5)c(=O)c5cc(F)cnc54)c3)cc2)CC1 [Example 262, 3-[cis-4-({[5-chloro-1-methyl-3-(trifluoromethyl)-1H-pyrazol-4-yl]methyl}amino)cyclohexyl]-6-fluoro-1-{4′-[(4-isopropyl-piperazin-1-yl}methyl]biphenyl-3-yl}pyrido[2,3-d]pyrimidine-2,4(1H,3H)-dione]"
8,794,"O=c1c2cc(F)cnc2n(-c2cccc(-c3ccc(O)cc3CN3CCOCC3)c2)c(=O)n1[C@H]1CC[C@@H](NCc2cccc(F)c2O)CC1 [Example 280, 6-fluoro-3-{cis-4-[(3-fluoro-2-hydroxybenzyl)amino]cyclohexyl}-1-[4′-hydroxy-2′-(morpholin-4-ylmethyl)biphenyl-3-yl]pyrido[2,3-d]pyrimidine-2,4(1H,3H)-dione]"
9,63.1,"O=C1CN(Cc2cc(O)ccc2-c2cccc(-n3c(=O)n([C@H]4CC[C@@H](NCc5cn6cc(F)ccc6n5)CC4)c(=O)c4cc(F)cnc43)c2)CCN1 [Example 377, 6-fluoro-3-(cis-4-{[(6-fluoroimidazo[1,2-a]pyridin-2-yl)methyl]amino}cyclohexyl)-1-{4′-hydroxy-2′-[(3-oxopiperazin-1-yl)methyl]biphenyl-3-yl}pyrido[2,3-d]pyrimidine-2,4(1H,3H)-dione]"
10,12.6,"CN(C)C1(C(=O)N[C@H]2CC[C@@H](n3c(=O)c4cc(F)cnc4n(-c4cccc(-c5ccc(CN6CCN(CC(=O)N7CCOCC7)CC6)cc5)c4)c3=O)CC2)CC1 [Example 212, 1-(dimethylamino)-N-{cis-4-[6-fluoro-1-(4′-{[4-(2-morpholin-4-yl-2-oxoethyl)piperazin-1-yl]methyl}biphenyl-3-yl)-2,4-dioxo-1,4-dihydropyrido[2,3-d]pyrimidin-3(2H)-yl]cyclohexyl} cyclopropanecarboxamide]"
11,200,"CN(C)CCOc1cc(F)ccc1-c1cccc(-n2c(=O)n([C@H]3CC[C@@H](NC(=O)c4cn5cc(F)ccc5n4)CC3)c(=O)c3cc(F)cnc32)c1 [Example 82, N-{cis-4-[1-{2′-[2-(dimethylamino)ethoxy]-4′-fluorobiphenyl-3-yl}-6-fluoro-2,4-dioxo-1,4-dihydropyrido[2,3-d]pyrimidin-3 (2H)-yl]cyclohexyl}-6-fluoroimidazo[1,2-a]pyridine-2-carboxamide]"
12,50.1,"O=C(N[C@H]1CC[C@@H](n2c(=O)c3cc(F)cnc3n(-c3cccc(-c4ccc(O)cc4CN4CCNCC4)c3)c2=O)CC1)c1cn2cc(F)ccc2n1 [Example 72, 6-fluoro-N-{cis-4-[6-fluoro-1-[4′-hydroxy-2′-(piperazin-1-ylmethyl)biphenyl-3-yl]-2,4-dioxo-1,4-dihydropyrido[2,3-d]pyrimidin-3(2H)-yl]cyclohexyl}imidazo[1,2-a]pyridine-2-carboxamide trifluoroacetate salt]"
13,79.4,"Cc1cccc(CN[C@H]2CC[C@@H](n3c(=O)c4cc(F)cnc4n(-c4cccc(-c5ccc(O)cc5CN5CCOCC5)c4)c3=O)CC2)n1 [Example 284, 6-fluoro-1-{4′-hydroxy-2′-(morpholin-4-ylmethyl)biphenyl-3-yl]-3-(cis-4-{[(6-methylpyridin-2-yl)methyl]amino}cyclohexyl)pyrido [2,3-d]pyrimidine-2,4(1H,3H)-dione]"
14,2000,"CN(C)Cc1ccc(-c2cccc(-n3c(=O)n([C@H]4CC[C@@H](NCc5cn6ccccc6n5)CC4)c(=O)c4cc(F)cnc43)c2)cc1 [Example 343, 1-{4′-[(dimethylamino)methyl]biphenyl-3-yl}-6-fluoro-3-{cis-4-[(imidazo[1,2-a]pyridin-2-ylmethyl)amino]cyclohexyl}pyrido[2,3-d]pyrimidine-2,4(1H,3H)-dione]"
15,794,"O=c1c2cc(F)cnc2n(-c2cccc(-c3ccc(O)cc3CN3CCOCC3)c2)c(=O)n1[C@H]1CC[C@@H](NCc2cc(F)ccc2F)CC1 [Example 282, 3-{cis-4-[(2,5-difluorobenzyl)amino]cyclohexyl}-6-fluoro-1-[4′-hydroxy-2′-(morpholin-4-ylmethyl)biphenyl-3-yl]pyrido[2,3-d]pyrimidine-2,4(1H,3H)-dione]"
16,100,"O=C(N[C@H]1CC[C@@H](n2c(=O)c3cc(F)cnc3n(-c3cccc(-c4ccc(CN5CCN(C6CCCC6)CC5)cc4)c3)c2=O)CC1)c1cnccn1 [Example 295, N-{cis-4-[1-{4′-[(4-cyclopentylpiperazin-1-yl)methyl]biphenyl-3-yl}-6-fluoro-2,4-dioxo-1,4-dihydropyrido[2,3-d]pyrimidin-3(2H)-yl]cyclohexyl} pyrazine-2-carboxamide]"
17,316,"CN(CC(=O)N(C)C)Cc1cc(O)ccc1-c1cccc(-n2c(=O)n([C@H]3CC[C@@H](NCc4cn5cc(F)ccc5n4)CC3)c(=O)c3cc(F)cnc32)c1 [Example 378, N~2~-({3′-[6-fluoro-3-(cis-4-{[(6-fluoroimidazo[1,2-a]pyridin-2-yl)methyl]amino}cyclohexyl)-2,4-dioxo-3,4-dihydropyrido[2,3-d]pyrimidin-1(2H)-yl]-4-hydroxybiphenyl-2-yl}methyl)-N,N,N~2~-trimethylglycinamide]"
18,2000,"CN1CCCN(Cc2ccc(-c3cccc(-n4c(=O)n([C@H]5CC[C@@H](NC(=O)CCN6CCCCC6)CC5)c(=O)c5cc(F)cnc54)c3)cc2)CC1 [Example 293, N-{cis-4-[6-fluoro-1-{4′-[(4-methyl-1,4-diazepan-1-yl)methyl]biphenyl-3-yl}-2,4-dioxo-1,4-dihydropyrido[2,3-d]pyrimidin-3(2H)-yl]cyclohexyl}-3-piperidin-1-ylpropanamide]"
19,39.8,"O=CN1CCCN(Cc2cc(O)ccc2-c2cccc(-n3c(=O)n([C@H]4CC[C@@H](NCc5cn6cc(F)ccc6n5)CC4)c(=O)c4cc(F)cnc43)c2)CC1 [Example 376, 4-({3′-[6-fluoro-3-(cis-4-{[(6-fluoroimidazo[1,2-a]pyridin-2-yl)methyl]amino}cyclohexyl)-2,4-dioxo-3,4-dihydropyrido[2,3-d]pyrimidin-1(2H)-yl]-4-hydroxybiphenyl-2-yl}methyl)-1,4-diazepane-1-carbaldehyde]"
20,158,"NCc1ccc(-c2cccc(-n3c(=O)n([C@H]4CC[C@@H](NC(=O)c5cn6cc(F)ccc6n5)CC4)c(=O)c4cc(F)cnc43)c2)cc1 [Example 32, N-{cis-4-[1-[4′-(aminomethyl)biphenyl-3-yl]-6-fluoro-2,4-dioxo-1,4-dihydropyrido[2,3-d]pyrimidin-3(2H)-yl]cyclohexyl}-6-fluoroimidazo[1,2-a]pyridine-2-carboxamide Hydrochloride]"
21,126,"CC(C)NCCc1ccc(-c2cccc(-n3c(=O)n([C@H]4CC[C@@H](NC(=O)c5cn6cc(F)ccc6n5)CC4)c(=O)c4cc(F)cnc43)c2)cc1 [Example 98, 6-fluoro-N-{cis-4-[6-fluoro-1-{4′-[2-(isopropylamino)ethyl]biphenyl-3-yl}-2,4-dioxo-1,4-dihydropyrido[2,3-d]pyrimidin-3(2H)-yl]cyclohexyl}imidazo[1,2-a]pyridine-2-carboxamide]"
22,7.94,"CCCN1CCN(Cc2ccc(-c3cccc(-n4c(=O)n([C@H]5CC[C@@H](NC(=O)c6cn7c(n6)CCCC7)CC5)c(=O)c5cc(F)cnc54)c3)cc2)CC1 [Example 227, N-{cis-4-[6-fluoro-2,4-dioxo-1-{4′-[(4-propylpiperazin-1-yl)methyl]biphenyl-3-yl}-1,4-dihydropyrido[2,3-d]pyrimidin-3(2H)-yl]cyclohexyl}-5,6,7,8-tetrahydroimidazo[1,2-a]pyridine-2-carboxamide]"
